# Data from patent publication US20240209028A1, “CNP COMPOUNDS” (priority 2022, published 2024).
# Starred links: 1 amine or outer side, 2 acyl side, 3 side chain; linkers in the order of their positions; H or OH if unused. Positions of bridges follow the written chain, without caps; N, C: chain ends. Non-standard residues stand in square brackets, D forms with d. Residues, ends and D or L forms follow the SMILES beside them. *: point of attachment. C18 diacid = O=C(O)CCCCCCCCCCCCCCCCC(=O)*; γGlu = O=C(O)[C@H](CCC(=O)[*:2])N[*:1]; AEEA = NCCOCCOCC(=O)O
# Molecular target: T1, human natriuretic peptide receptor 2 (hNPR2) (Homo sapiens, UniProt P20594)
# T1 construct: expressed in transfected cells; host or cells: HEK293 (ATCC CRL-1573), clone 35, co-transfected with pGloSensor-42F
# T1 sequence (P20594 23-1047): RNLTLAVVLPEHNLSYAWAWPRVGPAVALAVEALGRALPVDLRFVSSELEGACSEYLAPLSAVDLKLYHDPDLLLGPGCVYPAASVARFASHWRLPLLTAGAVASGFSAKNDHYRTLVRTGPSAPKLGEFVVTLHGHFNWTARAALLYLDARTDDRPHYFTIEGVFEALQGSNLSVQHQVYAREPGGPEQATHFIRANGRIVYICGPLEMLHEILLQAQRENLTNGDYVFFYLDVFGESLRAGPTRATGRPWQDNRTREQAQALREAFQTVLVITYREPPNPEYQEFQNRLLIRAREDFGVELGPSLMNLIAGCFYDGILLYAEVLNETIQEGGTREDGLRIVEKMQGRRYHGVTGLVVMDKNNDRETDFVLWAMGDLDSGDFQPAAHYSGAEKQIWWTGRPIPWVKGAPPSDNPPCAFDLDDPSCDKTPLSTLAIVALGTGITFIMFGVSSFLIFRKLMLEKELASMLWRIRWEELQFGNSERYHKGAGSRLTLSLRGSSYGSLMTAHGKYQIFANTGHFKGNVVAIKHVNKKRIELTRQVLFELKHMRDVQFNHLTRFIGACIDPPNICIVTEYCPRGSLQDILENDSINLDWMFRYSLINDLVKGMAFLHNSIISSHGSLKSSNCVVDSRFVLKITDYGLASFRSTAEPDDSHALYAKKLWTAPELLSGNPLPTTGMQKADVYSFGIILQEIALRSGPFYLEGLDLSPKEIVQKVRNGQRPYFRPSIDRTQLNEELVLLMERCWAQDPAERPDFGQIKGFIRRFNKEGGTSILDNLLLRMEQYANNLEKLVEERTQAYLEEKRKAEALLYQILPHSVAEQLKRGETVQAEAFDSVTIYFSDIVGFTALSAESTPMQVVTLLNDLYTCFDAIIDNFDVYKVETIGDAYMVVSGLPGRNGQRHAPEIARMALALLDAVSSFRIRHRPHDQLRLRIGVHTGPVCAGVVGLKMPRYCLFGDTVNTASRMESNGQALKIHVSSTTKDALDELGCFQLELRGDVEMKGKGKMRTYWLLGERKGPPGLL
# Experiment: In vitro hNPR2 activity assay (cGMP GloSensor reporter, HEK293)
# Type: cell-based
# Settings: 0% HSA; HEK293-hNPR2/GloSensor cells
# Protocol: To evaluate the in vitro activity of CNP22 (0065; Chem. 1) and CNP compounds of the invention, they were tested for their ability to induce production of cyclic guanosine monophosphate (cGMP) in reporter cells expressing the human natriuretic peptide receptor 2 (hNPR2).
# Cell culture: To produce the reporter cell line, HEK293 (ATCC® CRL-1573™) cells were stably transfected with the pGloSensor-42F reporter plasmid (GloSensor cGMP reporter—luciferase, Promega) and an expression plasmid encoding the hNPR2 receptor. A single cell clone was isolated for the reporter cell line. When reporter cells are exposed to an hNPR2 activating compound, hNPR2 cause production of cGMP. […] Active GloSensor luciferase is able to convert luciferin to oxyluciferin, a process that produces bioluminescence. Upon cell lysis and supply of luciferase substrate, luciferase activity can be quantified by detection of luminescence. Therefore, addition of an hNPR2 activating compound and subsequent addition of detection reagent to reporter cells causes generation of luminescence in a dose dependent manner. […] This measure, also referred to as in vitro potency, is reported for all compounds tested. In all the in vitro activity experiments, CNP22 was used as a positive in-plate control for hNPR2 activation. To reduce inter-assay variation, we also report the potency of each compound relative to the potency of the CNP22 control on each plate.
# Procedure: HEK293-hNPR2/GloSensor clone 35 cells were continuously cultured in selection medium (DMEM containing 10% FCS, 1% P/S, 200 μg/mL G418 and 100 μg/mL hygromycin). To perform the assay, cells were detached with TrypLE Express (Gibco #12604013), put through a 70 μm cell strainer, counted and seeded in 30 μL/well assay medium (DMEM without phenol red and with 1% P/S) at 10,000 cells/well in white 384-well plates (Perkin Elmer #6007680) overnight. The following day, test compounds were serial diluted in dilution medium (DMEM without phenol red containing 1% OVA (Sigma #A5505 lot 04M7001V), 0.01% Tween20 (Roche #33766700) and 1% P/S) and 10 μL/well of diluted test compounds were subsequently added to the cells. For each compound, ten different concentrations in the range 0.25 μM-10 μM were tested. After 30 min of incubation at 37° C. and 5% CO2, 40 μL/well Bright-Glo detection reagent (Promega #E2650) was added. […] To determine the in vitro potency or EC50 of each test compound, a four parameter logistic regression was done on the raw data for each test compound using the Python package SciPy optimize. The average EC50 values are listed as “hNPR2 0% HSA. [EC50 (nM)]” in Table 2. A relative potency was calculated by the following expression: EC50 (CNP22 in-plate control)/EC50 (test compound)*100, shown as “hNPR2 0% HSA. [EC50% rel CNP]” in Table 2. A minimum of two replicates was measured for each test compound.
row,SMILES,EC50
1,CC[C@H](C)[C@@H]1NC(=O)[C@H](CCCNC(=N)N)NC(=O)[C@H](CC(=O)O)NC(=O)[C@H](CC(C)C)NC(=O)[C@H](CCCCN)NC(=O)[C@H](CC(C)C)NC(=O)CNC(=O)[C@H](Cc2ccccc2)NC(=O)[C@@H](NC(=O)CNC(=O)[C@H](CCCCN)NC(=O)[C@H](CO)NC(=O)[C@H](CC(C)C)NC(=O)CNC(=O)[C@H](CCCCN)NC(=O)[C@H](CCC(=O)O)NC(=O)[C@H](CCC(N)=O)NC(=O)[C@H](C)NC(=O)CNC(=O)[C@H](Cc2c[nH]cn2)NC(=O)[C@H](Cc2ccc(O)cc2)NC(=O)COCCOCCNC(=O)COCCOCCNC(=O)CC[C@H](NC(=O)CCCCCCCCCCCCCCCCC(=O)O)C(=O)O)CSSC[C@@H](C(=O)O)NC(=O)CNC(=O)[C@H](CC(C)C)NC(=O)CNC(=O)[C@H](CO)NC(=O)[C@H](CC(C)C)NC(=O)[C@H](CO)NC(=O)CNC1=O [compound 1237] ({C18 diacid-γGlu-AEEA-AEEA}-YHGAQEKGLSKGCFGLKLDRIGSLSGLGC-OH; disulfide 13-29),1.95 nM

# Same assay, conditions: potency relative to CNP22 (0065)
row,SMILES,hNPR2 0% HSA. [EC50% rel CNP]
1,CC[C@H](C)[C@@H]1NC(=O)[C@H](CCCNC(=N)N)NC(=O)[C@H](CC(=O)O)NC(=O)[C@H](CC(C)C)NC(=O)[C@H](CCCCN)NC(=O)[C@H](CC(C)C)NC(=O)CNC(=O)[C@H](Cc2ccccc2)NC(=O)[C@@H](NC(=O)CNC(=O)[C@H](CCCCN)NC(=O)[C@H](CO)NC(=O)[C@H](CC(C)C)NC(=O)CNC(=O)[C@H](CCCCN)NC(=O)[C@H](CCC(=O)O)NC(=O)[C@H](CCC(N)=O)NC(=O)[C@H](C)NC(=O)CNC(=O)[C@H](Cc2c[nH]cn2)NC(=O)[C@H](Cc2ccc(O)cc2)NC(=O)COCCOCCNC(=O)COCCOCCNC(=O)CC[C@H](NC(=O)CCCCCCCCCCCCCCCCC(=O)O)C(=O)O)CSSC[C@@H](C(=O)O)NC(=O)CNC(=O)[C@H](CC(C)C)NC(=O)CNC(=O)[C@H](CO)NC(=O)[C@H](CC(C)C)NC(=O)[C@H](CO)NC(=O)CNC1=O [compound 1237] ({C18 diacid-γGlu-AEEA-AEEA}-YHGAQEKGLSKGCFGLKLDRIGSLSGLGC-OH; disulfide 13-29),11.8%
2,CC[C@H](C)[C@@H]1NC(=O)[C@H](CCCNC(=N)N)NC(=O)[C@H](CC(=O)O)NC(=O)[C@H](CC(C)C)NC(=O)[C@@H]2CCCN2C(=O)[C@H](CC(C)C)NC(=O)CNC(=O)[C@H](Cc2ccccc2)NC(=O)[C@@H](NC(=O)CNC(=O)[C@H](CCC(N)=O)NC(=O)[C@H](CO)NC(=O)[C@H](CC(C)C)NC(=O)CNC(=O)[C@H](CCCCN)NC(=O)[C@H](CCCCN)NC(=O)[C@H](CCC(N)=O)NC(=O)[C@H](C)NC(=O)CNC(=O)[C@H](CCCCN)NC(=O)[C@H](Cc2ccc(O)cc2)NC(=O)COCCOCCNC(=O)COCCOCCNC(=O)COCCOCCNC(=O)COCCOCCNC(=O)[C@H](CCC(=O)O)NC(=O)[C@H](CCC(=O)O)NC(=O)[C@H](CCC(=O)O)NC(=O)CCCCCCCCCCCCCCCCC(=O)O)CSSC[C@@H](C(=O)O)NC(=O)CNC(=O)[C@H](CC(C)C)NC(=O)CNC(=O)[C@H](CO)NC(=O)[C@H](CC(C)C)NC(=O)[C@H](CO)NC(=O)CNC1=O [compound 1481] ({C18 diacid}-EEE[AEEA][AEEA][AEEA][AEEA]YKGAQKKGLSQGCFGLPLDRIGSLSGLGC-OH; disulfide 20-36),35.1%
3,CC[C@H](C)[C@@H]1NC(=O)[C@H](CCCNC(=N)N)NC(=O)[C@H](CC(=O)O)NC(=O)[C@H](CC(C)C)NC(=O)[C@@H]2CCCN2C(=O)[C@H](CC(C)C)NC(=O)CNC(=O)[C@H](Cc2ccccc2)NC(=O)[C@@H](NC(=O)CNC(=O)[C@H](CCCCN)NC(=O)[C@H](CO)NC(=O)[C@H](CC(C)C)NC(=O)CNC(=O)[C@H](CCCCN)NC(=O)[C@H](CCCCN)NC(=O)[C@H](CCC(N)=O)NC(=O)[C@H](C)NC(=O)CNC(=O)[C@H](Cc2c[nH]cn2)NC(=O)[C@H](CCC(=O)O)NC(=O)COCCOCCNC(=O)COCCOCCNC(=O)CC[C@H](NC(=O)CCCCCCCCCCCCCCCCC(=O)O)C(=O)O)CSSC[C@@H](C(=O)O)NC(=O)CNC(=O)[C@H](CC(C)C)NC(=O)CNC(=O)[C@H](CO)NC(=O)[C@H](CC(C)C)NC(=O)[C@H](CO)NC(=O)CNC1=O [compound 1309] ({C18 diacid-γGlu-AEEA-AEEA}-EHGAQKKGLSKGCFGLPLDRIGSLSGLGC-OH; disulfide 13-29),33.3%
4,CC[C@H](C)[C@@H]1NC(=O)[C@H](CCCNC(=N)N)NC(=O)[C@H](CC(=O)O)NC(=O)[C@H](CC(C)C)NC(=O)[C@@H]2CCCN2C(=O)[C@H](CC(C)C)NC(=O)CNC(=O)[C@H](Cc2ccccc2)NC(=O)[C@@H](NC(=O)CNC(=O)[C@H](CO)NC(=O)[C@H](CO)NC(=O)[C@H](CC(C)C)NC(=O)CNC(=O)[C@H](CCCCN)NC(=O)[C@H](CCC(=O)O)NC(=O)[C@H](CCC(N)=O)NC(=O)[C@H](C)NC(=O)CNC(=O)[C@H](CCC(=O)O)NC(=O)[C@H](Cc2ccc(O)cc2)NC(=O)COCCOCCNC(=O)COCCOCCNC(=O)CC[C@H](NC(=O)CCCCCCCCCCCCCCCCC(=O)O)C(=O)O)CSSC[C@@H](C(=O)O)NC(=O)CNC(=O)[C@H](CC(C)C)NC(=O)CNC(=O)[C@H](CO)NC(=O)[C@H](CC(C)C)NC(=O)[C@H](CO)NC(=O)CNC1=O [compound 1228] ({C18 diacid-γGlu-AEEA-AEEA}-YEGAQEKGLSSGCFGLPLDRIGSLSGLGC-OH; disulfide 13-29),12.3%
5,CC[C@H](C)[C@@H]1NC(=O)[C@H](CCCNC(=N)N)NC(=O)[C@H](CC(=O)O)NC(=O)[C@H](CC(C)C)NC(=O)[C@@H]2CCCN2C(=O)[C@H](CC(C)C)NC(=O)CNC(=O)[C@H](Cc2ccccc2)NC(=O)[C@@H](NC(=O)CNC(=O)[C@H](CCCCN)NC(=O)[C@H](CO)NC(=O)[C@H](CC(C)C)NC(=O)CNC(=O)[C@H](Cc2c[nH]cn2)NC(=O)[C@H](Cc2c[nH]cn2)NC(=O)[C@H](CCC(N)=O)NC(=O)[C@H](C)NC(=O)CNC(=O)[C@H](Cc2c[nH]cn2)NC(=O)[C@H](Cc2ccc(O)cc2)NC(=O)COCCOCCNC(=O)COCCOCCNC(=O)CC[C@H](NC(=O)CCCCCCCCCCCCCCCCC(=O)O)C(=O)O)CSSC[C@@H](C(=O)O)NC(=O)CNC(=O)[C@H](CC(C)C)NC(=O)CNC(=O)[C@H](CO)NC(=O)[C@H](CC(C)C)NC(=O)[C@H](CO)NC(=O)CNC1=O [compound 1346] ({C18 diacid-γGlu-AEEA-AEEA}-YHGAQHHGLSKGCFGLPLDRIGSLSGLGC-OH; disulfide 13-29; C-terminus assumed),17.0%
6,CC[C@H](C)[C@@H]1NC(=O)[C@H](CCCNC(=N)N)NC(=O)[C@H](CC(=O)O)NC(=O)[C@H](CC(C)C)NC(=O)[C@@H]2CCCN2C(=O)[C@H](CC(C)C)NC(=O)CNC(=O)[C@H](Cc2ccccc2)NC(=O)[C@@H](NC(=O)CNC(=O)[C@H](CCCCN)NC(=O)[C@H](CO)NC(=O)[C@H](CC(C)C)NC(=O)CNC(=O)[C@H](CCCCN)NC(=O)[C@H](CCCCN)NC(=O)[C@H](CCC(N)=O)NC(=O)[C@H](C)NC(=O)CNC(=O)[C@H](CCCCN)NC(=O)[C@H](Cc2ccc(O)cc2)NC(=O)[C@H](CCCCN)NC(=O)[C@H](CCCNC(=N)N)NC(=O)[C@H](C)NC(=O)COCCOCCNC(=O)COCCOCCNC(=O)COCCOCCNC(=O)COCCOCCNC(=O)CC[C@H](NC(=O)CC[C@H](NC(=O)CC[C@H](NC(=O)CC[C@H](NC(=O)CC[C@H](NC(=O)CCCCCCCCCCCCCCCCC(=O)O)C(=O)O)C(=O)O)C(=O)O)C(=O)O)C(=O)O)CSSC[C@@H](C(=O)O)NC(=O)CNC(=O)[C@H](CC(C)C)NC(=O)CNC(=O)[C@H](CO)NC(=O)[C@H](CC(C)C)NC(=O)[C@H](CO)NC(=O)CNC1=O [compound 1462] ({C18 diacid-γGlu-γGlu-γGlu-γGlu-γGlu-AEEA-AEEA-AEEA-AEEA}-ARKYKGAQKKGLSKGCFGLPLDRIGSLSGLGC-OH; disulfide 16-32),106.6%
